# Experimental data: patent US7674454B2, “Enzyme-prodrug therapy for prosthetic joint repair” (Innovata Limited, priority 2004, dated 2010)
# Tests used:
# [1] = Djeha et al, 2001; cited from earlier work
# [2] = system: interface cells; assay: Transduction and cell killing assay: CTL102 infection, then CB1954, WST metabolic activity readout; format: cell-based, human
# Description: Cell viability was then determined using a metabolic activity assay.
# For all experiments described, interface cells were used. Interface tissue was removed from the periprosthetic space during revision-surgery by an orthopedic surgeon and collected in sterile phosphate buffered saline (PBS). Connective tissue and fat were removed thoroughly and the interface tissue was digested for at least two hours at 37° C. using collagenase 1A (1 mg/ml; Sigma, St Louis, Mo., USA). Cells were then harvested by filtering the tissue/collagenase substance through a 200 μm filter (NPBI, Emmer-Compascuum, The Netherlands). The cells were cultured in 75 cm^2 flasks (Cellstar, Greiner, Alphen aan de Rijn, The Netherlands) with Iscove's modified Dulbecco's medium (IMDM; Biowitthaker, Verviers, Belgium), supplemented with glutamax (GibcoBRL, Paisley, UK), penicillin and streptomycin (Boehringer Mannheim, Germany), and 10% fetal calf serum (FCS; GibcoBRL, Paisley, UK) at 37° C. and 5% CO2.
# Before each experiment interface cells were detached from the flasks using 0.25% trypsin (GibcoBRL, Paisley, UK). The cells were counted in a bürker counter and death cells were excluded by trypan blue. Cells were seeded in a 96 wells-plate (flat bottom) at a density of 5,000 cells per well. Cells were incubated overnight to allow attachment to the bottom. […]
# Hereafter the absorbance at 415 nm was measured.
# [3] = system: loosened hip prosthesis; assay: Phase-1 clinical study: intra-articular vector, prodrug, then cement injection; conditions: Patient 1, twelve hours after prodrug injection
# Description: After 48 hours, to allow transduction of target cells and expression of the nitroreductase transgene, CB1954 (at a dosage of 24 mg m^−2) is injected intra-articularly.
# [4] = system: interface cells; assay: NTR/CB1954 cell killing in the presence of, or after transient exposure to, contrast medium; format: cell-based, human; conditions: results not shown
# From the text: The effect of contrast medium (iotrolan) on HAdV5-transduction of interface cells was investigated with Ad.CMV.LacZ. Transducibility of the cells increases with the concentration of HAdV-5 vector. However, the contrast medium has restraining influence on the transduction efficiency. With higher concentrations of iotrolan, the HAdV-5 vector concentration has less effect on gene transfer efficiency. […] The effect of iotrolan on the transduction is statistically significant (p<0.001). Furthermore, differences between cells from different individuals (n=6) have been observed. To evaluate the effect of contrast medium on cell killing by NTR/CB1954, the previously described experiment for the efficiency of cell killing was repeated in the presence of contrast medium. […] This incompatibility may be due to the presence of iodine within the contrast media. Screening of all available contrast media may allow determination of a contrast medium compatible with viral transduction.
# The influence of transient exposure to contrast medium on the transduction of interface cells was investigated. Interface cells were exposed to contrast medium for 0 to 120 minutes and the period between washing away of the contrast medium and performing the NTR/CB1954 cell killing approach was varied. […]
# [5] = system: interface cells; assay: Effect of contrast medium on HAdV-5 transduction of interface cells; format: cell-based, human; conditions: contrast medium concentration of 50%, 4 hours; p<0.001
# Description: Interface cells were seeded in 96-wells plates. After overnight incubation cells were infected with Ad.CMV.LacZ (concentrations of 0, 25, 100, and 200 pfu/cell) in IMDM/20% FCS, 50 μl per well. Fifty μl Iotrolan (Isovist) in 0.9% NaCl was added in concentrations of 0, 25, 50, and 100%. (When diluted in the culture medium these concentrations decreased to 0, 12.5, 25, and 50%.) Four hours after infection, the cells were washed twice with IMDM and incubated for the rest of the day in IMDM/10% FCS at 37° C. and 5% CO2. The Ad.CMV.LacZ transduced cells were cultured for three days after removal of the vector and contrast medium. Subsequently, the cells were fixed and stained for β-galactasidase activity. The transduction rate was assessed as described above.
# [6] = system: interface cells; assay: Effect of contrast medium on interface cells, WST-1 viability; format: cell-based, human; conditions: 4 hours exposure, 0-50% contrast medium, viability after 3 more days; p=0.563
# Description: Interface cells were seeded in 96-wells plates. Into each well 50 μl of IMDM/20% FCS and 50 μl of a solution containing contrast medium and 0.9% NaCl in various concentrations (0, 12.5, 25, and 50% contrast medium) were added. The contrast medium used was the low-osmolarity, nonionic dimer iotrolan (Isovist; Schering, Berlin, Germany). After four hours of exposure to the contrast medium, the cells were washed twice and incubated in IMDM/10% FCS. The cells were cultured for three more days, changing the culture medium every day. On day four, cell viability was determined with the WST-1 cell viability assay kit (Roche, Mannheim, Germany) according to the manufacturers protocol.
structure (smiles),measurement,setting,value
"NC(=O)c1cc(N2CC2)c([N+](=O)[O-])cc1[N+](=O)[O-] [CB1954, 5-(aziridin-1-yl)-2,4-dinitrobenzamide]",tolerability in man,[1],well-tolerated in man
same,killing of interface cells,"[2]; 200 virus pfu/cell and CB1954 50 μM, cells from two revision surgery patients",90%
same,dose dependence of killing,"[2]; CTL102 0-200 IU/cell, CB1954 0-50 μM, cells from both patients",virus and CB1954-dose dependent killing
same,nausea,[3],1 WHO grade
same,cell killing by NTR/CB1954,[4],cells are not killed
CN(C(=O)CC(=O)N(C)c1c(I)c(C(=O)NC(CO)C(O)CO)c(I)c(C(=O)NC(CO)C(O)CO)c1I)c1c(I)c(C(=O)NC(CO)C(O)CO)c(I)c(C(=O)NC(CO)C(O)CO)c1I (stereo not shown) [iotrolan],transduction of interface cells by Ad.CMV.LacZ,[5],none of the cells were transduced
same,effect on viability of interface cells,[6],does not affect the viability of the cells at any concentration
